Experimental data published in article PMC9874818 (Archiv Der Pharmazie, 2022).
Starred links: 1 amine or outer side, 2 acyl side, 3 side chain; linkers in the order of their positions; H or OH if unused. Residues, ends and D or L forms follow the SMILES beside them. CO = O=C([*:1])[*:2]

Columns and labels:
CATSL (human liver) = CATSL (human liver) (Homo sapiens, UniProt P07711); assay: biochemical
[1] = target: TMPRSS2 (human recombinant) (Homo sapiens, UniProt O15393); type: biochemical; settings: ratio of IC50 values
CATSB (human liver) = CATSB (human liver) (Homo sapiens, UniProt P07858); assay: biochemical
[2] = target: Furin (human recombinant aa108–715) (Homo sapiens, UniProt P09958); assay: biochemical
[3] = cited from earlier work

TMPRSS2 (human recombinant), sequence (O15393 whole entry): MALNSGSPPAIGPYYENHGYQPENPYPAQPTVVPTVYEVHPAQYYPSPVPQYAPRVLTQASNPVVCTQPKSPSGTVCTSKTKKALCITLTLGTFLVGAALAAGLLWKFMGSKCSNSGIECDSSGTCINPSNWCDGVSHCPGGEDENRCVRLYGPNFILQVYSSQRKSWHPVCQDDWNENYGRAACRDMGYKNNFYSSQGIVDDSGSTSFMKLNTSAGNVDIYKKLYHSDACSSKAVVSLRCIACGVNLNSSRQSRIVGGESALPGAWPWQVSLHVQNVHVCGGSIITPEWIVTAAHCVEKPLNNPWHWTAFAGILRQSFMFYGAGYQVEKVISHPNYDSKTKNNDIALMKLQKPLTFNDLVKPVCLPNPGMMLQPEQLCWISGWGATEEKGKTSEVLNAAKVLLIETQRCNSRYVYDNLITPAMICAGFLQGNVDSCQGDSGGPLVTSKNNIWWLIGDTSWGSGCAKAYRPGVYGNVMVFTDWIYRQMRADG
CATSL (human liver), sequence (P07711 114-333): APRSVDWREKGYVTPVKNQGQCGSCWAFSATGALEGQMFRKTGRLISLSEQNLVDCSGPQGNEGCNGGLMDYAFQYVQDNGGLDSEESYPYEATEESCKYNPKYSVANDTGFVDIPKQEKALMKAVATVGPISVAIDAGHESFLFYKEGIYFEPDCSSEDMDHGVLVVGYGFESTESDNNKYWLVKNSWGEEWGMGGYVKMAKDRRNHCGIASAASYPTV
Furin (human recombinant aa108–715), sequence (P09958 108-715): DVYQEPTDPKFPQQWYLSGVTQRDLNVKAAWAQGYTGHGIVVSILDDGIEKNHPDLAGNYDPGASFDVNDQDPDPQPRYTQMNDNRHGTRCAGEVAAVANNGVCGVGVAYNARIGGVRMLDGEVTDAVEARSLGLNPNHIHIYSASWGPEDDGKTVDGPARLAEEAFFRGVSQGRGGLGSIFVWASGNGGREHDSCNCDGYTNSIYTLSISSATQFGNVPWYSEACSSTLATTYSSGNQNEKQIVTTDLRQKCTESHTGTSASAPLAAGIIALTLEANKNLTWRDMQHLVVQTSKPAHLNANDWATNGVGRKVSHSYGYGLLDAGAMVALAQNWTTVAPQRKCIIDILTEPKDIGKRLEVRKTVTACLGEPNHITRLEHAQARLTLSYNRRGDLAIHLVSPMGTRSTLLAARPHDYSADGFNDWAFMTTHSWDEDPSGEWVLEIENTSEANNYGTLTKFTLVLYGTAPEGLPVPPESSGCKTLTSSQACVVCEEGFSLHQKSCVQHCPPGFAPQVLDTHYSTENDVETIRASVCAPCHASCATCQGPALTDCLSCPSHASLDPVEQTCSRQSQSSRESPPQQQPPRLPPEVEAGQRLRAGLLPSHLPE

| SMILES | IC50 (CATSL (human liver)) [nM] | increase in TMPRSS2 potency over BC-11 [1] [fold] | IC50 (CATSB (human liver)) [nM] | IC50 [2] [nM] | plasma half-life [3] |
| --- | --- | --- | --- | --- | --- |
| CC(C)[C@H](NC(=O)[C@H](CCCNC(=N)N)NC(=O)N[C@@H](Cc1ccccc1)C(=O)O)C(=O)N[C@H](C=O)CCCNC(=N)N [antipain, L‐Phe‐CO‐L‐Arg‐L‐Val‐L‐Arg‐H] ({Phe-CO}-Arg-Val-Arg-aldehyde) | 2.74 | 2 | 24.1 | 4170 |  |
| CN(C)C(=O)COC(=O)Cc1ccc(OC(=O)c2ccc(NC(=N)N)cc2)cc1 [camostat] |  |  |  |  | approximately an hour or less |
| N=C(N)c1ccc2cc(OC(=O)c3ccc(N=C(N)N)cc3)ccc2c1 [nafamostat] |  |  |  |  | approximately an hour or less |
